Test results as given in publication PMC6020753 (Chemical Science, 2016).

Target: T1, NP1 (Rhodnius prolixus, UniProt Q26239)
T1 construct: recombinant in E. coli BL21(DE3), reconstituted ferriheme b protein, two Cys-Cys disulfides
Experiment: X-band EPR of nitrite complex
Type: binding
Conditions: 300 mM NaNO2, 100 mM HEPES pH 7.2, 25% glycerol, 10 K; heme iron ligand

T1 sequence (Q26239 24-207): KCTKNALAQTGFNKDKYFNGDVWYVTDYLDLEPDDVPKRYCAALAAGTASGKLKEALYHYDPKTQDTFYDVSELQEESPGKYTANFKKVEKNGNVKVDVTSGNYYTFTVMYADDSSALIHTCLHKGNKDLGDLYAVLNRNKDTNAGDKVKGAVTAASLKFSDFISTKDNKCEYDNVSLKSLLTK

Compound: O=NO [nitrite]
- X-band EPR of nitrite complex: NP1[NO2^–] also has a HALS signal with a similar ratio
